Test results taken from patent US20050053631A1, “Method of decreasing sebum production” (Unilever Home & Personal Care USA, Division of Conopco, Inc., priority 2003, published 2005).

Tested on: sebocytes
Experiment: In Vitro Sebocyte Lipogenesis Assay (14-C acetate incorporation into lipids of cultured sebocytes)
Format: cell-based
Settings: cultured human sebocytes; for % decrease in lipid syn.: 24 h, relative to vehicle control
Method: In Vitro Sebocyte Lipogenesis Assay
Human sebaceous glands were isolated from the nose of a person and cultured using submerged tissue culture techniques (Bajor et al, J. Invest. Dermatol., 102:1994, p. 564). These sebocytes accumulate intracellular lipid droplets characteristic of mature human sebum.
Harvested and passaged sebocytes were added to each well of a 96 well tissue culture plate and incubated at 37° C. in-the presence of 7.5% CO2 for 10 days. The growth medium was changed three times per week. On the day of experimentation, the growth medium was removed and the sebocytes washed three times with phosphate buffered saline (PBS). Fresh phenol-free sebocyte growth media in 0.2 ml amount containing various concentrations of active agent speculated to inhibit lipogenesis was added to each well. Triplicate wells were utilized for each sample. […] The cultures were incubated at 37° C./7.5% CO2 for 24 hours. Radioactive label was prepared by adding 100 μl (micro-liters) of 14-C labelled acetic acid (Amersham, sodium salt, specific activity of 56 mCi/mmol) to 10 ml of 50 mM sodium acetate buffer. Then 50 μl was added to each well containing the sebocytes and active agents. The cultures were returned to the incubator for 4 hours. Thereafter the treatments and label were removed and the sebocytes rinsed three times with fresh PBS. Samples containing the 14-C label were extracted and the label counted using a Beckman scintillation counter. Triplicates were performed for each sample.
For each 96 well tissue culture plate, 20 samples could be analyzed. Of these, 1 sample was reserved for media, 1 sample for DMSO or ethanol, and 1 sample for phenol red leaving 17 remaining samples.

Row | Compound | % decrease in lipid syn. (20 uM) [%] | % decrease in lipid syn. (40 uM) [%] | % decrease in lipid syn. (100 uM) [%] | activity in reducing lipid synthesis in sebocytes (in words) | % decrease in lipid syn. (10 uM) [%] | also measured
1 | Oc1cc(Cl)ccc1Oc1ccc(Cl)cc1Cl [Triclosan] | 48.8 | 90 | 97.2 | significant activity |  | 
2 | C=C/C(C)=C/[C@@]1(C)SC(=O)C(C)=C1O [Thiolactomycin] |  |  |  | not to inhibit |  | 
3 | C=C1CCC(=O)O1 [γ-methylene γ-butyrolactone] |  |  |  | ineffective |  | 
4 | O=C(OC1Cc2c(O)cc(O)cc2OC1c1cc(O)c(O)c(O)c1)c1cc(O)c(O)c(O)c1 (single isomer, unassigned; (-)) [EGCG, (−)-epigallocatechin gallate] |  | 13.4 |  | significant activity |  | % decrease in lipid syn. (8 uM): 8.9%; % decrease in lipid syn. (200 uM): 29.5%; % decrease in lipid syn. (1000 uM): 90%
5 | [2R,3S]-2,3-epoxy4-oxo-7,10-trans, trans-dodecanoic acid amide [Cerulenin] |  | 99.0 |  | significant activity | 96.5 | % decrease in lipid syn. (1.6 uM): 13.6%; % decrease in lipid syn. (5 uM): 52.0%; % decrease in lipid syn. (concentration not printed (between 40 uM and 10 uM in the list)): 96.5%
6 | C=C1CCOC1=O [α-methylene-γ-butyrolactone] | 13.2 |  | 53.3 | significant activity | 1.3 | % decrease in lipid syn. (500 uM): 100%
